According to patent US20140137294A1, “GLUCOSINOLATE TRANSPORTER PROTEIN AND USES THEREOF” (UNIVERSITY OF COPENHAGEN, priority 2010, published 2014):

Target: T1, AtGTR2 (Arabidopsis thaliana, UniProt Q9LV10)
T1 construct: expressed in transfected cells; host or cells: Xenopus oocytes injected with in vitro transcribed cRNA (vector pNB1u)
T1 sequence (Q9LV10 1-616): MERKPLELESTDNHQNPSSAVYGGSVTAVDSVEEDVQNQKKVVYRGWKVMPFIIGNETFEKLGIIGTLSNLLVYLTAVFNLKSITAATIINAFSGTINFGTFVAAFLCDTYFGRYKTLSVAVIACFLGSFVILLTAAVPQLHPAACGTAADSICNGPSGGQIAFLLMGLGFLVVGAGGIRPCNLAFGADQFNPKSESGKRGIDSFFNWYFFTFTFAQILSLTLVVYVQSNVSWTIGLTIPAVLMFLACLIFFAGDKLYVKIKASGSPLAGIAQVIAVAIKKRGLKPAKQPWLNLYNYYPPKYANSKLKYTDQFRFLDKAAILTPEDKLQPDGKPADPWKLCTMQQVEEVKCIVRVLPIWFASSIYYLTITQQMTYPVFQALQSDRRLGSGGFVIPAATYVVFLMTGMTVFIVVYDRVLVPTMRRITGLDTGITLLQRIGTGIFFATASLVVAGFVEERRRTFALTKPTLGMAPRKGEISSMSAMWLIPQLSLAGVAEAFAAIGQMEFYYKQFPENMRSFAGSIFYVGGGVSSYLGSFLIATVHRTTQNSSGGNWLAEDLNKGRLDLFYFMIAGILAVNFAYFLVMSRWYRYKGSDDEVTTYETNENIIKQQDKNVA
Test: Glucosinolate uptake by AtGTR2 expressing oocytes, LC-MS analysis of oocyte extracts
Assay type: cell-based
Conditions: data not shown

CSCCCC/C(=N/OS(=O)(=O)O)S[C@@H]1O[C@H](CO)[C@@H](O)[C@H](O)[C@H]1O [4-MTB, 4-methylthiobutyl glucosinolate]
uptake by AtGTR2 measured by LC-MS analysis of oocyte extracts: took up
